These results are taken from patent US6458746B1, “Plant growth regulating formulations” (BASF Aktiengesellschaft, priority 1998, dated 2002).

Format in all cases: in vivo
In test [1] the test system is spring wheat (cv. “Ralle”). The test can be described thus: Shoot height reduction in spring wheat, synergistic combinations. The method, then: (§1) Unless otherwise noted, the growth regulating proerties of different compounds in different formulations were determined under greenhouse conditions as follows: […]
(§2) Test plants were grown in plastic pots of approximately 12.5 cm in diameter in a substrate provided with sufficient nutrients and water. At an appropriate shoot length the plants were treated with aqueous sprays of the formulations. The growth-regulating action observed was confirmed at the end of the experiment by measuring the height of the plants. The results obtained were compared with the growth height of the untreated plants.
(§3) To show the synergistic effects of formulations in accordance with the instant invention together with further growth regulating agents, formulations in accordance with the invention were prepared and additional active ingredients added.
Shoot height reduction in spring wheat (cv. “Ralle”) 21 days after treatment with combinations of standard compound S4 and compound VII
Shoot height reduction in spring wheat (cv. “Ralle”) 13 days after treatment with combinations of standard compound S5 and compound VII

The subject of test [2] is small grains and rice (wheat, barley, oats, rye, rice). The test can be described thus: Shoot length reduction in small grains and rice (statements across species). The settings on record: for dosages needed to obtain results equivalent to compounds VI, VII, and IX: in these plant species, applied in commercial formulations; for shoot length reduction compared with compounds II to V: Examples 1 and 2; for activity in the other plant species compared with wheat: plant species other than wheat; for activity-enhancing effects of ethoxylated castor oil R 15: barley and wheat, Example 5. Here is the method:
as §1, §2

For a further test, the system named is oats. Nature of the test: Greenhouse shoot length test, oats. Also: key: 0: no effect; +: low activity; ++: intermediate activity; +++: high activity. The settings on record: 1% formulations in cyclohexanone: Emulan EL = 4:1. Here is the method:
as §1, §2

The test system of the next test is rice. Nature of the test: Greenhouse shoot length test, rice. Also: key: 0: no effect; +: low activity; ++: intermediate activity; +++: high activity. The settings on record: 1% formulations in cyclohexanone: Emulan EL = 4:1. The method, then:
as §1, §2

For the next test, the system named is wheat. The test can be described thus: Greenhouse shoot length test, wheat. As to Shoot length reduction [activity, relative to control] in wheat: key: 0: no effect; +: low activity; ++: intermediate activity; +++: high activity. The note with it: for Shoot length reduction [activity, relative to control] in wheat: 1% formulations in cyclohexanone: Emulan EL = 4:1; for dosages of active ingredient needed to obtain results equivalent to compounds VI, VII, and IX: in wheat; for Shoot length Wheat [% of control]: 1% formulations in Atlas G 1086. Here is the method:
as §1, §2
(§4) Assays with wheat, barley, oat, and rye plants were carried out as described above. The aqueous spray solutions were prepared as follows: […]

A further test has as its system rye. Nature of the test: Greenhouse shoot length test, rye. Also: key: 0: no effect; +: low activity; ++: intermediate activity; +++: high activity. The settings on record: 1% formulations in cyclohexanone: Emulan EL = 4:1. Here is the method: as §1, §2
The next test has as its system barley. The test can be described thus: Greenhouse shoot length test, barley. The note with it: for Shoot length reduction [activity, relative to control] in barley: 1% formulations in cyclohexanone: Emulan EL = 4:1; for Shoot length Barley [% of control]: 1% formulations in Atlas G 1086. Here is the method:
as §1, §2, §4

Test [3] concerns rice seedlings [cvs. “Koshihikari” (tall), “Tan-ginbozu” (dwarf), “Waito C” (dwarf)]. Nature of the test: Shoot growth of rice seedlings, combinations with GA3. The note with it: 7 days after treatment, 1 kg/ha ammonium sulphate added; for Shoot growth Waito C [% of Control]: 100% = 8.7 cm; for Shoot growth Tan-ginbozu [% of Control]: 100% = 9.4 cm; for Shoot growth Koshihikari [% of Control]: 100% = 17.4 cm. Here is the method: as §1, §2
The synergizing effect of compound VII on shoot elongation in rice is shown in the results of Example 7.
Enhanced shoot growth of rice seedlings [cvs. “Koshihikari” tall), “Tan-ginbozu” (dwarf), “Waito C” (dwarf)] 7 days after treatment with combinations of compound 6 with GA3^d

The subject of test [4] is spring barley (cv. “Alexis”). Nature of the test: Shoot height reduction in spring barley, synergistic combinations. The settings on record: 20 days after treatment. The method, then: as §1, §2, §3
Shoot height reduction in spring barley (cv. “Alexis”) 20 days after treatment with combinations of standard compound S2 and compound VII
Shoot height reduction in spring barley (cv. “Alexis”) 20 days after treatment with combinations of standard compound S4 and compound VII

[5] abbreviates: 750 g/ha ai, adjuvant R 15 500 g/ha.
The mark [6] stands for this setting: 250 g/ha ai, adjuvant R 15 500 g/ha.

“prohexadione-Ca [S4, reference compound]”: the “% Shoot height reduction Actual” value in test [1] (30 g/ha a.i., 21 days after treatment) worked out at 6%; in test [1] (60 g/ha a.i., 21 days after treatment), 15%. In addition, the “dosages needed to obtain results equivalent to compounds VI, VII, and IX” value (from here on “dosages needed”) in test [2] is “approximately 20 times higher”.
As for `CCCO[C@]12CC[C@@H]3[C@](C[C@H]1C)(C2)[C@@H](C(=O)O)[C@H]1[C@@]32CC=C[C@]1(C)C(=O)O2` [Comp. IX, exo-16,17-Dihydro-GA5-13-n-propyl ether], in the test with oats, the “Shoot length reduction [activity, relative to control] in oats” value is “++”. In addition, the “Shoot length reduction [activity, relative to control] in rice” value in the test on rice is “++”. Also, the “Shoot length reduction [activity, relative to control] in wheat” value in the test with wheat was “++”. The “Shoot length reduction [activity, relative to control] in rye” value in the test with rye is listed as “++”. Also, the “shoot length reduction compared with compounds II to V” value in [2] is listed as “superior to compounds II to V”. Also, the “Shoot length reduction [activity, relative to control] in barley” value in the test with barley was “++”.
For endo-16,17-Dihydro-GA5 [Comp. III], the “Shoot length reduction [activity, relative to control] in oats” value in the test on oats came to 0. Also, the “Shoot length reduction [activity, relative to control] in wheat” value in the test on wheat is listed as “++”. In addition, the “Shoot length reduction [activity, relative to control] in rye” value in the test with rye was “+++”. Besides, in the test with barley, the “Shoot length reduction [activity, relative to control] in barley” value is “++”.
Regarding `C[N+]1(C)CCCCC1` [S3, mepiquat chloride, reference compound], in the test on wheat, the “dosages of active ingredient needed to obtain results equivalent to compounds VI, VII, and IX” value was “approximately 100 times higher”. The “activity in the other plant species compared with wheat” value in [2] was “significantly less active”.
Regarding `C=C1C[C@]23C[C@@]1(O)CC[C@H]2[C@@]12C=C[C@H](O)[C@@](C)(C(=O)O1)[C@H]2[C@@H]3C(=O)O` (single isomer, unassigned; ent-3) [S6, ent-3α,10,13-trihydroxy-20-norgiberrell-1,16-diene-7,19-dioic acid 19,10-lactone, reference compound], in test [3] (S6 1.25 g/ha ai), the “Shoot growth Waito C [% of Control]” value is reported as 115 % of Control, the “Shoot growth Tan-ginbozu [% of Control]” value is given as 128 % of Control and the “Shoot growth Koshihikari [% of Control]” value is reported as 109 % of Control. Further, in [3] (S6 2.50 g/ha ai), the “Shoot growth Waito C [% of Control]” value is on record as 143 % of Control, the “Shoot growth Tan-ginbozu [% of Control]” value is reported as 160 % of Control and the “Shoot growth Koshihikari [% of Control]” value is 112 % of Control. In [3] (S6 5.00 g/ha ai), the “Shoot growth Waito C [% of Control]” value is 190 % of Control, the “Shoot growth Tan-ginbozu [% of Control]” value is reported as 186 % of Control and the “Shoot growth Koshihikari [% of Control]” value is given as 124 % of Control.
Take `CCOC(=O)C1CC(=O)C(=C(O)C2CC2)C(=O)C1` (centres unmarked) [S5, trinexapac-ethyl, reference compound]: the “% Shoot height reduction Actual” value in [1] (30 g/ha a.i., 13 days after treatment) amounted to 14%. Also, the “dosages needed” value in test [2] is listed as “approximately 20 times higher”.
In the case of `CC(=O)OC12CCC3C(CC1C)(C2)C(C(=O)O)C1C2(C)C=CCC13OC2=O` (stereo not drawn) [Comp. VI, endo-16,17-Dihydro-GA5-13-acetate], in the test on oats, the “Shoot length reduction [activity, relative to control] in oats” value is reported as “++”. Further, in the test on rice, the “Shoot length reduction [activity, relative to control] in rice” value is recorded as “+++”. The “Shoot length reduction [activity, relative to control] in wheat” value in the test on wheat is “+++”. Further, the “Shoot length Wheat [% of control]” value is 88 % of control in the test with wheat (1.6 g/ha ai), 88 % of control in the test with wheat (3.1 g/ha ai), 68 % of control with wheat (6.3 g/ha ai) and 64 % of control in the test with wheat (12.5 g/ha ai). Moreover, the “Shoot length reduction [activity, relative to control] in rye” value in the test with rye is on record as “+++”. Besides, the “shoot length reduction compared with compounds II to V” value in test [2] is on record as “superior to compounds II to V”. Also, the “Shoot length reduction [activity, relative to control] in barley” value in the test on barley is listed as “+++”. Further, the “Shoot length Barley [% of control]” value in the test on barley (1.6 g/ha ai) is 95 % of control; in the test with barley (3.1 g/ha ai), 84 % of control; in the test with barley (6.3 g/ha ai), 65 % of control; in the test on barley (12.5 g/ha ai), 53 % of control.
For `CC1CC23CC1(O)CCC2C12CC=CC(C)(C(=O)O1)C2C3C(=O)O` (stereo not drawn) [Comp. II, exo-16,17-Dihydro-GA5], in the test with oats, the “Shoot length reduction [activity, relative to control] in oats” value is recorded as 0. For the same molecule, in the test on wheat, the “Shoot length reduction [activity, relative to control] in wheat” value is given as “+”. Besides, the “Shoot length reduction [activity, relative to control] in rye” value with rye is recorded as “++”. The “Shoot length reduction [activity, relative to control] in barley” value in the test on barley is “+”.
With `C[N+](C)(C)CCCl` [S2, chlormequat chloride, reference compound], the “Shoot length [% of control] Wheat” value is reported as 75 % of control in the test with wheat (setting [5]) and 83 % of control with wheat (750 g/ha ai, no adjuvant). For the same molecule, in the test on wheat, the “dosages of active ingredient needed to obtain results equivalent to compounds VI, VII, and IX” value is “approximately 100 times higher”. Moreover, the “% Shoot height reduction Actual” value in test [4] (750 g/ha a.i.) stood at 11%; in test [4] (1500 g/ha a.i.), 10%. For the same molecule, the “activity-enhancing effects of ethoxylated castor oil R 15” value in test [2] is on record as “not or only at a far lower degree found”. Moreover, in test [2], the “activity in the other plant species compared with wheat” value was “significantly less active”. Also, the “Shoot length [% of control] Barley” value in the test on barley (setting [5]) is 94 % of control; in the test on barley (750 g/ha ai, no adjuvant) it was 94 % of control.
Regarding “Dichloromethano-16,17-dihydro-GA5-13-acetate [Comp. V]”, in the test on oats, the “Shoot length reduction [activity, relative to control] in oats” value is “+”. Also, the “Shoot length reduction [activity, relative to control] in wheat” value with wheat is listed as 0. Moreover, the “Shoot length Wheat [% of control]” value is reported as 101 % of control in the test with wheat (1.6 g/ha ai), 95 % of control in the test with wheat (3.1 g/ha ai), 84 % of control in the test with wheat (6.3 g/ha ai) and 75 % of control in the test with wheat (12.5 g/ha ai). Also, the “Shoot length reduction [activity, relative to control] in rye” value in the test with rye was “+”. The “Shoot length reduction [activity, relative to control] in barley” value in the test with barley is 0. The “Shoot length Barley [% of control]” value is 99 % of control in the test on barley (1.6 g/ha ai), 97 % of control in the test on barley (3.1 g/ha ai), 82 % of control in the test on barley (6.3 g/ha ai) and 76 % of control in the test on barley (12.5 g/ha ai).
On to `O=P(O)(O)CCCl` [S1, ethephon, reference compound], for which the “Shoot length [% of control] Wheat” value with wheat (setting [6]) was 92 % of control; with wheat (250 g/ha ai, no adjuvant) it was 93 % of control. The “activity-enhancing effects of ethoxylated castor oil R 15” value in [2] is “not or only at a far lower degree found”. For the same molecule, in test [2], the “dosages needed” value was “approximately 20 times higher”. Further, the “Shoot length [% of control] Barley” value is given as 101 % of control in the test with barley (setting [6]) and 95 % of control in the test with barley (250 g/ha ai, no adjuvant).
